{
  "source": "patent US8143025B2",
  "about": "“Antibodies against vascular endothelial growth factor receptor-1” (ImClone LLC, priority 2004, dated 2012)",
  "test_system": "DU4475 xenograft",
  "experiment": "DU4475 breast tumor xenograft",
  "assay_type": "in vivo, mouse",
  "description": "Athymic nude mice (Charles River Laboratories, Wilmington, Mass.) were injected subcutaneously in the left flank area with 2×10^6 of DU4475 cells or 5×10^6 of MDA-MB-231 and MDA-MB-435 cells mixed in Matrigel (Collaborative Research Biochemicals. Bedford, Mass.). In the DU4475 and MDA-MB-231 models, tumors were allowed to reach approximately 200 mm^3 in size and then mice were randomized into groups of 12-16 animals per group. Animals received i.p. administration of the anti-VEGFR-I antibody clones 6F9, 15F11, or 18F1 at a dose of 0.5 mg (MDA-MB-231) or 1 mg (DU4475) three times each week. In the MDA-MB-435 model, the tumor cells were implanted subcutaneously into mammary fat pad area in the mouse. After tumors grew to reach approximately 200 mm^3 in size, mice were randomized into groups of 15 animals per group and intraperitoneally administered with 0.5 mg per dose of 18F1 antibody three times each week. Mice in control groups received an equal volume of saline solution. Treatment of animals was continued for the duration of the experiment. Tumors were measured twice each week with calipers. Tumor volumes were calculated using the formula [π/6 (w1×w2×w2)], where “w1” represents the largest tumor diameter and “w2” represents the smallest tumor diameter. Female athymic nu/nu mice, 6-8 weeks of age, were injected subcutaneously on the lateral dorsal surface with 0.4 mL volume of a suspension containing a human tumor cell line in media, diluted 1:1 with MATRIGEL™ (BD Biosciences). The cell lines used in xenograft models, with the cell doses indicated in parenthesis (10^6 cells/mouse), were: human colon carcinoma cell lines DLD-I (5), GEO (5) and HT-29 (5); human breast carcinoma cell lines DU4475 (2), MDA-MB-231 (5), MDA-MB-435 (5), and BT474 (5). When tumors reached approximately 200-300 mm^3, mice were randomized by tumor size and divided into treatment groups. Tumor growth was evaluated approximately twice weekly, with tumor volume calculated as π/6* (Length*Width^2), where Length=longest diameter and Width=diameter perpendicular to Length. Tumor dimensions were measured with calipers. T/C % was calculated as 100*(Final Treatment Tumor Volume/Initial Treatment Tumor Volume)/(Final Control Tumor Volume/Initial Control Tumor Volume). 18F1 was diluted in 0.9% USP saline (Braun) or phosphate buffered saline (PBS) and administered intraperitoneally in a volume of 0.5 mL per mouse. The effect of treatment on tumor growth was analyzed using repeated measures analysis of variance (RM ANOVA), p<0.05 was considered significant. 18F1 was used in combination with an antibody to mouse VEGFR-I, MF1. […] AU treatments were administered i.p. The effect of treatments on tumor growth were analyzed using repeated measures analysis of variance (RM ANOVA), p<0.05 was considered significant.",
  "data": [
    {"substance": "18F1: human anti-VEGFR-1 monoclonal antibody clone; VL SEQ ID NO: 16, VH SEQ ID NO: 20 [Clone 18F1]", "values": [
      {"measurement": "tumor growth of the DU4475 xenograft", "setting": "1 mg per dose three times each week i.p., p<0.05, FIGS. 19A-B", "value": "statistically significant suppression"},
      {"measurement": "tumor growth of the DU4475 xenograft", "setting": "0.5 or 1 mg per dose three times each week, ANOVA p<0.05, FIG. 20A", "value": "statistically significant suppression"},
      {"measurement": "growth of DU4475 xenograft tumors", "setting": "Example 9, intraperitoneal, p<0.05, FIG. 25A", "value": "significantly (p<0.05) suppressed"},
      {"measurement": "tumor growth inhibition, DU4475 xenograft", "setting": "Example 11, p<0.05, FIG. 28B", "value": "significant tumor growth inhibition"}
    ]}
  ]
}
